This note sets out measurements from patent publication US4980377A, “1-(aminophenyl)-2-aminopropanone derivatives” (Laboratoire L. Lafon, priority 1984, dated 1990).

Counter-ions that a name gives are not always drawn.

The test system of data set [1] is gravid White New Zealand female rabbits. As to the kind of experiment: Teratogenicity in gravid White New Zealand rabbits. The format is in vivo, rabbit. The following applies: day 5 to day 18 of gestation; for Affected foetuses, %: normal limit 1.5%. As for the experimental part:
The protocol used comprised administering to gravid White New Zealand female rabbits (weighing each about 2900-3000 grams before gestation) a daily dose of 0 (batch of control animals), 5,10 or 50 mg/kg of each product to be tested by gastrogavage from day 5 to day 18 of gestation, then carrying out a cesarean operation on day 29 of gestation in order to enumerate:
(i) the total number of foestuses, and
(ii) the total number of foestuses presenting at least one malformation.
To appreciate the results of such a protocol it must be noted that natural malformations may occur. Statistically, the percentage of foetuses presenting at least one malformation in any control batch of gravid White New Zealand female rabbits is lower than or equal to 1.5% with respect to the total number of foetuses.
To be precise in this protocol a malformation comprises at least one of the following cases: articular limb blocade, anorous foetus, deviated tail, shorter tail, skull deformation, exemcephalia.

Data set [2] deals with mice. As to the kind of experiment: Interaction with barbital. The format is in vivo, mouse. To be noted: i.p., barbital 220 mg/kg. As to the method: Half an hour after the administration of CRL 41 153, groups of 10 mice receive an intraperitoneal injection of barbital (220 mg/kg).
A short description of data set [3]: pH of solutions in distilled water. It counts as physicochemical. As for the experimental part:
The neuropsychopharmacological study was undertaken according to the procedures described above for CRL 41 153, CRL 41 213 being adminstered intraperitoneally, in solution in distilled water, in a volume of 20 ml/kg to male mice and a volume of 5 ml/kg to male rats, and the pH of the injected solution varying with the concentration of CRL 41 213 according to the data given in Table II below.

The subject of data set [4] is CNS. As to the kind of experiment: Neuropsychopharmacological profile as a whole. To be noted: conclusion of the tests. The format is in vivo, mice and rats. As to the method:
In the neuropsychopharmacological study which follows, a solution of CRL 41 153 in distilled water (pH 1.5) was administered intraperitoneally in a volume of 20 ml/kg to male mice and 5 ml/kg to male rats.

Regarding `Nc1cccc(C(=O)CN2CCCC2)c1` [A 21, reference compound], in data set [1] (10 mg/kg daily), the “Affected foetuses, number” value was 4; the “Total foetuses (live)” value was 78; the “Affected foetuses, %” value was determined as 5.12%.

For `Nc1ccc(C(=O)CCCN2CCCC2)cc1` [A 6, reference compound], in data set [1] (5 mg/kg daily), the “Affected foetuses, number” value came to 0; the “Total foetuses (live)” value is recorded as 89; the “Affected foetuses, %” value came out at 0%. Also, in data set [1] (10 mg/kg daily), the “Affected foetuses, number” value was 5; the “Total foetuses (live)” value is on record as 86; the “Affected foetuses, %” value came to 5.81%.

For `CC(C)NCCCC(=O)c1ccc(N)cc1` [A 1, reference compound], in data set [1] (10 mg/kg daily), the “Affected foetuses, number” value is 4; the “Total foetuses (live)” value is 87; the “Affected foetuses, %” value came out at 4.59%.

Regarding `CC(C(=O)c1cccc(N)c1)N1CCCCC1` (stereo not drawn) [CRL 41 263, 1-(3-aminophenyl)-2-piperidinopropanone dihydrochloride], in data set [1] (10 mg/kg daily), the “Affected foetuses, number” value was determined as 0; the “Total foetuses (live)” value turned out to be 92; the “Affected foetuses, %” value stood at 0%.

`CCCNC(C)C(=O)c1cccc(N)c1` (stereo not drawn) [CRL 41 278]: in data set [1] (10 mg/kg daily), the “Affected foetuses, number” value is on record as 1; the “Total foetuses (live)” value is 92; the “Affected foetuses, %” value is 1.08%.

Regarding `CCC1CCCCN1C(C)C(=O)c1ccc(N)c(Br)c1` (stereo not drawn) [A 22, 1-(4-amino-3-bromophenyl)2-(2-ethylpiperidino)propanone, reference compound], in data set [1] (10 mg/kg daily), the “Affected foetuses, number” value is given as 13; the “Total foetuses (live)” value was 46; the “Affected foetuses, %” value worked out at 28.26%.

In the case of `Nc1ccc(C(=O)CCNC2CC2)cc1` [A 12, reference compound], in data set [1] (5 mg/kg daily), the “Affected foetuses, number” value was 2; the “Total foetuses (live)” value stood at 75; the “Affected foetuses, %” value was found to be 2.66%.

Consider `Nc1ccc(C(=O)CN2CCCC2)cc1` [A 20, reference compound], for which, in data set [1] (10 mg/kg daily), the “Affected foetuses, number” value was found to be 5; the “Total foetuses (live)” value is 74; the “Affected foetuses, %” value turned out to be 8.10%.

Turning to `CC(C(=O)c1cccc(N)c1)N1CCOCC1` (stereo not drawn) [CRL 41 268], in data set [1] (10 mg/kg daily), the “Affected foetuses, number” value was determined as 1; the “Total foetuses (live)” value is listed as 91; the “Affected foetuses, %” value came out at 1.11%.

Take `CN1CCN(CCC(=O)c2ccc(N)cc2)CC1` [A 11, reference compound]: in data set [1] (10 mg/kg daily), the “Affected foetuses, number” value was 6; the “Total foetuses (live)” value was found to be 80; the “Affected foetuses, %” value amounted to 7.50%.

As to `CCNCCC(=O)c1ccc(N)cc1` [A 7, reference compound], in data set [1] (5 mg/kg daily), the “Affected foetuses, number” value is listed as 1; the “Total foetuses (live)” value stood at 80; the “Affected foetuses, %” value stood at 1.25%. Moreover, in data set [1] (10 mg/kg daily), the “Affected foetuses, number” value is reported as 4; the “Total foetuses (live)” value is on record as 79; the “Affected foetuses, %” value is recorded as 5.06%.

Regarding `Nc1ccc(C(=O)CN2CCOCC2)cc1` [A 16, 1-(4-aminophenyl)-2-morpholinylethanone, reference compound], in data set [1] (5 mg/kg daily), the “Affected foetuses, number” value turned out to be 3; the “Total foetuses (live)” value came to 81; the “Affected foetuses, %” value came out at 3.70%. Moreover, in data set [1] (10 mg/kg daily), the “Affected foetuses, number” value is recorded as 13; the “Total foetuses (live)” value was 50; the “Affected foetuses, %” value is 26.0%.

For the compound `Nc1ccc(C(=O)CN2CCCCC2)cc1` [A 18, reference compound], in data set [1] (5 mg/kg daily), the “Affected foetuses, number” value was 4; the “Total foetuses (live)” value is given as 80; the “Affected foetuses, %” value came to 5.0%. Further, in data set [1] (10 mg/kg daily), the “Affected foetuses, number” value amounted to 10; the “Total foetuses (live)” value turned out to be 51; the “Affected foetuses, %” value came out at 19.60%.

With `Nc1cccc(C(=O)CN2CCOCC2)c1` [A 17, reference compound], in data set [1] (5 mg/kg daily), the “Affected foetuses, number” value came to 2; the “Total foetuses (live)” value was 77; the “Affected foetuses, %” value stood at 2.59%. Further, in data set [1] (10 mg/kg daily), the “Affected foetuses, number” value stood at 11; the “Total foetuses (live)” value worked out at 46; the “Affected foetuses, %” value is 23.91%.

Turning to `CC(C)NCCCC(=O)c1cc(Cl)c(N)c(Cl)c1` [A 3, reference compound], in data set [1] (10 mg/kg daily), the “Affected foetuses, number” value is given as 5; the “Total foetuses (live)” value stood at 82; the “Affected foetuses, %” value is 6.09%.

Consider `CC(C)(C)NCCCC(=O)c1ccc(N)cc1` [A 2, reference compound], for which, in data set [1] (10 mg/kg daily), the “Affected foetuses, number” value is reported as 4; the “Total foetuses (live)” value is 85; the “Affected foetuses, %” value came out at 4.70%.

With `Nc1ccc(C(=O)CCCN2CCCCC2)cc1` [A 5, reference compound], in data set [1] (5 mg/kg daily), the “Affected foetuses, number” value turned out to be 3; the “Total foetuses (live)” value is 81; the “Affected foetuses, %” value came to 3.70%. Further, in data set [1] (10 mg/kg daily), the “Affected foetuses, number” value is reported as 4; the “Total foetuses (live)” value was 87; the “Affected foetuses, %” value worked out at 4.59%.

With `CC(C)NCC(=O)c1ccc(N)cc1` [A 14, reference compound], in data set [1] (10 mg/kg daily), the “Affected foetuses, number” value worked out at 3; the “Total foetuses (live)” value stood at 76; the “Affected foetuses, %” value is 3.94%.

As for `CC(C(=O)c1cccc(N)c1)N(C)C` (stereo not drawn) [CRL 41 260], in data set [1] (10 mg/kg daily), the “Affected foetuses, number” value is listed as 1; the “Total foetuses (live)” value stood at 87; the “Affected foetuses, %” value came out at 1.14%.

Turning to `CC(C)NC(C)C(=O)c1cccc(N)c1` (stereo not drawn) [CRL 41 255], in data set [1] (10 mg/kg daily), the “Affected foetuses, number” value came to 1; the “Total foetuses (live)” value was found to be 89; the “Affected foetuses, %” value is 1.12%.

In the case of `Nc1ccc(C(=O)CCN2CCSCC2)cc1` [A 13, reference compound], in data set [1] (10 mg/kg daily), the “Affected foetuses, number” value stood at 12; the “Total foetuses (live)” value worked out at 43; the “Affected foetuses, %” value is recorded as 27.90%.

On to `CC(C)NCC(=O)c1cccc(N)c1` [A 15, reference compound], for which, in data set [1] (10 mg/kg daily), the “Affected foetuses, number” value is on record as 14; the “Total foetuses (live)” value is on record as 52; the “Affected foetuses, %” value came to 26.92%.

Take `CN(C)CCC(=O)c1ccc(N)cc1` [A 8, reference compound]: in data set [1] (10 mg/kg daily), the “Affected foetuses, number” value is 5; the “Total foetuses (live)” value worked out at 81; the “Affected foetuses, %” value amounted to 6.17%.

`Nc1cccc(C(=O)CN2CCCCC2)c1` [A 19, reference compound]: in data set [1] (10 mg/kg daily), the “Affected foetuses, number” value was 3; the “Total foetuses (live)” value was 62; the “Affected foetuses, %” value is recorded as 4.83%.

`Nc1ccc(C(=O)CCN2CCOCC2)cc1` [A 9, reference compound]: in data set [1] (5 mg/kg daily), the “Affected foetuses, number” value is 1; the “Total foetuses (live)” value is on record as 86; the “Affected foetuses, %” value amounted to 1.16%. For the same compound, in data set [1] (10 mg/kg daily), the “Affected foetuses, number” value is recorded as 0; the “Total foetuses (live)” value is 94; the “Affected foetuses, %” value was found to be 0%. Further, in data set [1] (50 mg/kg daily), the “Affected foetuses, number” value is 6; the “Total foetuses (live)” value is recorded as 82; the “Affected foetuses, %” value is listed as 7.31%.

Consider `CC(C(=O)c1ccc(N)cc1)N1CCN(C)CC1` (stereo not drawn) [CRL 41 243], for which the “Affected foetuses, number” value in data set [1] (50 mg/kg daily) was 0. The “Total foetuses (live)” value in data set [1] (50 mg/kg daily) is reported as 87. Further, the “Affected foetuses, %” value in data set [1] (50 mg/kg daily) worked out at 0%. Moreover, the “Duration of the sleep induced by barbital” value in data set [2] is listed as “at strong doses reduces the duration of the sleep induced by barbital”. Also, the pH amounted to 5.0 in data set [3] (0.1 g/liter in distilled water); 4.5 in data set [3] (0.2 g/liter in distilled water); 4.0 in data set [3] (0.4 g/liter in distilled water); 3.5 in data set [3] (0.8 g/liter in distilled water); 2.5 in data set [3] (3.2 g/liter in distilled water); 2.0 in data set [3] (6.4 g/liter in distilled water). The values for the pH in data set [3] (25 g/liter in distilled water), in data set [3] (50 g/liter in distilled water) and in data set [3] (≤0.05 g/liter in distilled water) were 1.5, 1.0 and 5.5, respectively. Further, the “Antidepressant effects (overall)” value in data set [4] was “modest antidepressant effects”. The “Sedative effects (overall)” value in data set [4] is “moderate sedative effects”.

Take `Nc1ccc(C(=O)CCN2CCCCC2)cc1` [A 10, reference compound]: in data set [1] (10 mg/kg daily), the “Affected foetuses, number” value is listed as 4; the “Total foetuses (live)” value is 78; the “Affected foetuses, %” value came out at 5.12%.
